# Measured values taken from patent US10357546B2, “Acceleration of diabetic wound healing” (University of Notre Dame du Lac, priority 2014, dated 2019).
# Entries after “also recorded” stand apart in the source; their conditions may differ. Where a name gives a salt, the structure may show the parent alone. Read-outs that look alike come from different tables or passages of the source.
# Legend:
# MMP-8 = MMP-8 (Homo sapiens (Human), UniProt P22894); test: Enzyme inhibition, MMP-8 catalytic domain; assay type: biochemical
# Sequence of MMP-8 (P22894 100-262): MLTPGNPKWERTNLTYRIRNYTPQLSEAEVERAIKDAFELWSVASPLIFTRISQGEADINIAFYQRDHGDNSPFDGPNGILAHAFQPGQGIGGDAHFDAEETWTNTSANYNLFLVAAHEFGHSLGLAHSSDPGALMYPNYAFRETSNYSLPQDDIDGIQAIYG
# Method: (§5) Inhibitor stock solutions (10 mM) were prepared freshly in DMSO before enzyme inhibition assays. […] Enzyme inhibition studies were carried out using a Cary Eclipse fluorescence spectrophotometer (Varian, Walnut Creek, Calif., USA).
# MMP-9 = MMP-9 (Homo sapiens (Human), UniProt P14780); test: Enzyme inhibition, MMP-9 catalytic domain; assay type: biochemical; settings: for residence time: calculated as 1/koff
# Sequence of MMP-9 (P14780 107-444): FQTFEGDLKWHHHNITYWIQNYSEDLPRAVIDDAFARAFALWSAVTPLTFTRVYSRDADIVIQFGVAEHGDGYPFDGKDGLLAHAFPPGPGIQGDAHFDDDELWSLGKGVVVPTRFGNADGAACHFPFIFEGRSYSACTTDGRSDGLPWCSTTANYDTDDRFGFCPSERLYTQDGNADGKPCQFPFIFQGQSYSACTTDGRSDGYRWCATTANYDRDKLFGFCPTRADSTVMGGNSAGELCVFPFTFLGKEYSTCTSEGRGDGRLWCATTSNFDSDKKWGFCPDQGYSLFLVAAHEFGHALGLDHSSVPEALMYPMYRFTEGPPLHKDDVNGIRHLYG
# Method: as §5
# MMP-7 = MMP-7 (Homo sapiens (Human), UniProt P09237); test: Enzyme inhibition, MMP-7; assay type: biochemical
# Sequence of MMP-7 (P09237 95-267): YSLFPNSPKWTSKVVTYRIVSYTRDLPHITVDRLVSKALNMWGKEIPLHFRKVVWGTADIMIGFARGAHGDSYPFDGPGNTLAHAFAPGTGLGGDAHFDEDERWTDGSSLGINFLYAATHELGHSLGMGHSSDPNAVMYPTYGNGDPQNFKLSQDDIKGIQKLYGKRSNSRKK
# From the text: (§1) Human recombinant active MMP-2 and MMP-7, and the catalytic domains of MMP-3 and MMP-14/MT1-MMP were purchased from EMD Chemicals, Inc. (San Diego, Calif., USA); human recombinant catalytic domains of MMP-1, MMP-8, and MMP-9 were purchased from Enzo Life Sciences, Inc. (Farmingdale, N.Y., USA); human recombinant active ADAM9 and ADAM10 were purchased from R&D Systems (Minneapolis, Minn., USA). Fluorogenic substrates MOCAc-Pro-Leu-Gly-Leu-A2pr(Dnp)-Ala-Arg-NH2 (for MMP-2, MMP-7, MMP-9 and MMP-14) and MOCAc-Arg-Pro-Lys-Pro-Val-Glu-Nva-Trp-Arg-Lys(Dnp)-NH2 (for MMP-3) were purchased from Peptides International (Louisville, Ky., USA); Mca-KPLGL-Dpa-AR-NH2 (for MMP-1, MMP-8 and ADAM10) and Mca-PLAQAV-Dpa-RSSSR-NH2 (for ADAM9) were purchased from R&D Systems (Minneapolis, Minn., USA). The Km values for MMP-2, MMP-9 and MMP-14 were the same as previously reported by Gooyit et al. ((2013) J. Med. Chem. 56(20):8139-8150). Inhibitor stock solutions (10 mM) were prepared freshly in DMSO before enzyme inhibition assays. We followed the same methodology for enzyme inhibition studies as reported before by Page-McCaw et al. ((2007) Nat Rev Mol Cell Biol 8(3):221-233). Enzyme inhibition studies were carried out using a Cary Eclipse fluorescence spectrophotometer (Varian, Walnut Creek, Calif., USA).
# [1] = tested on: MMP-8 activity (collagenase) in diabetic wounds; test: In-situ zymography with DQ-collagen; assay type: in vivo, mouse; settings: db/db mice
# From the text: (§6) In-situ zymography detects MMP activity in vivo using the fluorogenic substrates: DQ-gelatin for gelatinase (MMP-2 and MMP-9) activity and DQ-collagen for collagenase (MMP-1, MMP-8, and MMP-13) activity.
# (§7) Wounds were embedded in optimal cutting temperature (OCT, Tissue-Tek, Sakura Finetek, Torrance, Calif., USA) compound and cryosectioned at 12-μm thickness for hematoxylin-eosin (H&E) and at 8-μm thickness for in-situ zymography. […] For in-situ zymography, unfixed cryostat sections of wound tissues were incubated in reaction buffer (50 mM TBS pH 7.6) containing DQ-gelatin or DQ-collagen (Molecular Probes, Inc., Eugene, Oreg., USA) at 37° C. for 6 h. After fixation in 4% paraformaldehyde in PBS, cells were counterstained with DAPI and the images were visualized by fluorescence microscopy. […] The images for in-situ zymography and vascular density were obtained by confocal microscopy.
# IL-6 = IL-6 in wound tissue by ELISA; assay type: in vivo, mouse; settings: db/db mice, versus vehicle
# Method: (§2) Mice were sacrificed on days 7, 10, and 14, and the excised wounds were embedded in OCT compound and cryosectioned for histological evaluation and in situ zymography.
# (§3) Wound tissues (n=3 mice/group) were harvested and immediately frozen in liquid nitrogen on days 1, 3, and 14. The extracted tissues were homogenized in cold lysis buffer containing free-EDTA protease inhibitor cocktail (Pierce, Rockford, Ill., USA). The lysates were analyzed for protein concentration by the Bradford protein assay (Bio-Rad, Hercules, Calif., USA). The levels of IL-6, TGF-β1 and VEGF in the lysates were determined by ELISA, following the manufacturer's protocol (Abcam, Cambridge, Mass., USA). The cytokine levels for each mouse sample were expressed in picograms/mg tissue.
# [2] = tested on: re-epithelialization of diabetic wounds; test: H&E staining, re-epithelialization of diabetic wounds; assay type: in vivo, mouse; settings: db/db mice, ND-336 0.1 mg/wound/day, day 14
# Method: (§4) Wound measurements were taken on days 0, 7, 10, and 14. Animals were sacrificed on day 14 and wounds analyzed by H&E staining, TUNEL, and in-situ zymography.
# Female diabetic db/db (BKS.Cg-Dock7m+/+Leprdb/J, 8-weeks old, 38±3 g, n=24) were used for this study. Wounds were inflicted as described and the following day the wounds were treated topically with MMP-8 (50 μL of 20 μg/mL MMP-8 in reaction buffer) or vehicle (50 μL reaction buffer) once a day for 14 days. The reaction buffer consisted of 50 mM Tris (pH 7.5), 10 mM CaCl2, 150 mM NaCl, and 0.05% (w/v) Brij-35 (polyoxyethyleneglycoli dodecyl ether). […]
# Wounds were embedded in optimal cutting temperature (OCT, Tissue-Tek, Sakura Finetek, Torrance, Calif., USA) compound and cryosectioned at 12-μm thickness for hematoxylin-eosin (H&E) and at 8-μm thickness for in-situ zymography. Re-epithelialization was assessed on a fluorescent microscope (Nikon Eclipse 90i, Nikon Instruments, Inc., Melville, N.Y., USA). Apoptotic cells in wound sections were assessed using a modified terminal deoxynucleotidyl transferase-mediated dUTP-nick-end labeling (TUNEL) assay kit, following the manufacturer's instructions (Trevigen, Inc., Gaithersburg, Md., USA). […] After fixation in 4% paraformaldehyde in PBS, cells were counterstained with DAPI and the images were visualized by fluorescence microscopy. […]
# MMP-14 = MMP-14 (Homo sapiens (Human), UniProt P50281); test: Enzyme inhibition, MMP-14 catalytic domain; assay type: biochemical
# From the text: as §1
# ADAM10 = ADAM10 (Homo sapiens (Human), UniProt O14672); test: Enzyme inhibition, ADAM10; assay type: biochemical
# Sequence of ADAM10 (O14672 214-672): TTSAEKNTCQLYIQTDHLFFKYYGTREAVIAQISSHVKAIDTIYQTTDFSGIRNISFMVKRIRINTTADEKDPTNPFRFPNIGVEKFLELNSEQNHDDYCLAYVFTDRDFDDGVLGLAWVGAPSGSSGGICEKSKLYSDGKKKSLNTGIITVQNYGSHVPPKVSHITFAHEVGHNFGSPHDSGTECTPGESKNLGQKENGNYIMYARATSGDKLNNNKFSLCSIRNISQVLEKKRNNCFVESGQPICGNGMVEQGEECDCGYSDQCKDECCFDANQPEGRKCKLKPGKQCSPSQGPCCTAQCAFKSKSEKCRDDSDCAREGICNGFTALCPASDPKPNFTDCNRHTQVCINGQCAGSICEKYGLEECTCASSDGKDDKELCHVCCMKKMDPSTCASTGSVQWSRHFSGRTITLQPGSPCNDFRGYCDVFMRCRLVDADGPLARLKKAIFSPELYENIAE
# From the text: as §1
# MMP-3 = MMP-3 (Homo sapiens (Human), UniProt P08254); test: Enzyme inhibition, MMP-3 catalytic domain; assay type: biochemical
# Sequence of MMP-3 (P08254 100-272): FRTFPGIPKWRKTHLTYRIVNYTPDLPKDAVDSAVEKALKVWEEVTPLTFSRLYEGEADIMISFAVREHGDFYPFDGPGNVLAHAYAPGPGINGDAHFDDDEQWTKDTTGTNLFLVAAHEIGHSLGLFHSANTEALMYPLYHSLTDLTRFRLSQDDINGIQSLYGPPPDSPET
# From the text: as §1
# [3] = Stability in the buffers of the kinetic assays; assay type: physicochemical
# TGF-β1 = TGF-β1 in wound tissue by ELISA; assay type: in vivo, mouse; settings: db/db mice, versus vehicle
# Method: as §2, §3
# [4] = tested on: MMP-9 activity (gelatinase) in diabetic wounds; test: In-situ zymography with DQ-gelatin; assay type: in vivo, mouse; settings: db/db mice
# From the text: as §6, §7
# MMP-1 = MMP-1 (Homo sapiens (Human), UniProt P03956); test: Enzyme inhibition, MMP-1 catalytic domain; assay type: biochemical
# Sequence of MMP-1 (P03956 100-269): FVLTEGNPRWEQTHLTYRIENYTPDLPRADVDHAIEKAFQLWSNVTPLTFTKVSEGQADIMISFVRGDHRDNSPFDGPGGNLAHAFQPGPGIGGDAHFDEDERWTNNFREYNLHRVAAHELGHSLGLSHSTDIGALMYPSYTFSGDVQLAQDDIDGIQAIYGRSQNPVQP
# From the text: as §1
# [5] = tested on: diabetic wounds of db/db mice; test: Excisional diabetic wound model, wound closure; assay type: in vivo, mouse
# Method: Female diabetic db/db mice (BKS.Cg-Dock7^m+/+Lepr^db/J, 8-weeks old) were purchased from the Jackson Laboratory (Bar Harbor, Me., USA) and fed 5001 Laboratory Rodent Diet (LabDiet, St. Louis, Mo., USA) and water ad libitum. Mice were housed in polycarbonate shoebox cages with hardwood bedding at 72±2° F. and 12 h light/12 h dark.
# The dorsal area of the mice was shaved, and a single excisional 8-mm diameter wound (50 mm^2) was made on the dorsal thorax with a biopsy punch (Miltex, Plainsboro, N.J., USA) while the animals were under isofluorane anesthesia. Wounds were covered with Tegaderm™ dressing (3M Company, St. Paul, Minn., USA). Topical treatment was started the next day.
# Mice were anesthetized with isofluorane, and wounds were photographed with an Olympus SP-800 UZ camera mounted on a tripod at a fixed distance; a ruler was included in the digital photo. Wound areas were calculated using NIH ImageJ software (version 1.48) and expressed as percent change in wound area relative to day 0.
# as §4
# Female diabetic db/db (BKS.Cg-Dock7m+/+Leprdb/J, 8-weeks old, 38±3 g, n=24) were used for this study. Wounds were inflicted as described and the following day the wounds were treated topically with MMP-8 (50 μL of 20 μg/mL MMP-8 in reaction buffer) or vehicle (50 μL reaction buffer) once a day for 14 days. The reaction buffer consisted of 50 mM Tris (pH 7.5), 10 mM CaCl2, 150 mM NaCl, and 0.05% (w/v) Brij-35 (polyoxyethyleneglycoli dodecyl ether). Digital photographs of the wounds were taken on days 0, 7, 10, and 14 while animals were under isoflurane anesthesia. On days 7 and 14, 12 mice (n=6 per group) were sacrificed. The wounds were excised, embedded in OCT compound, and cryosectioned for histological evaluation and in-situ zymography.
# as §2
# [6] = tested on: apoptotic cells in diabetic wounds; test: TUNEL apoptosis detection in diabetic wounds; assay type: in vivo, mouse; settings: db/db mice, ND-336 0.1 mg/wound/day, day 14
# From the text: as §4, §2
# Wounds were embedded in optimal cutting temperature (OCT, Tissue-Tek, Sakura Finetek, Torrance, Calif., USA) compound and cryosectioned at 12-μm thickness for hematoxylin-eosin (H&E) and at 8-μm thickness for in-situ zymography. Re-epithelialization was assessed on a fluorescent microscope (Nikon Eclipse 90i, Nikon Instruments, Inc., Melville, N.Y., USA). Apoptotic cells in wound sections were assessed using a modified terminal deoxynucleotidyl transferase-mediated dUTP-nick-end labeling (TUNEL) assay kit, following the manufacturer's instructions (Trevigen, Inc., Gaithersburg, Md., USA). For in-situ zymography, unfixed cryostat sections of wound tissues were incubated in reaction buffer (50 mM TBS pH 7.6) containing DQ-gelatin or DQ-collagen (Molecular Probes, Inc., Eugene, Oreg., USA) at 37° C. for 6 h. After fixation in 4% paraformaldehyde in PBS, cells were counterstained with DAPI and the images were visualized by fluorescence microscopy. […]
# MMP-2 = MMP-2 (Homo sapiens (Human), UniProt P08253); test: Enzyme inhibition, MMP-2; assay type: biochemical
# Sequence of MMP-2 (P08253 110-660): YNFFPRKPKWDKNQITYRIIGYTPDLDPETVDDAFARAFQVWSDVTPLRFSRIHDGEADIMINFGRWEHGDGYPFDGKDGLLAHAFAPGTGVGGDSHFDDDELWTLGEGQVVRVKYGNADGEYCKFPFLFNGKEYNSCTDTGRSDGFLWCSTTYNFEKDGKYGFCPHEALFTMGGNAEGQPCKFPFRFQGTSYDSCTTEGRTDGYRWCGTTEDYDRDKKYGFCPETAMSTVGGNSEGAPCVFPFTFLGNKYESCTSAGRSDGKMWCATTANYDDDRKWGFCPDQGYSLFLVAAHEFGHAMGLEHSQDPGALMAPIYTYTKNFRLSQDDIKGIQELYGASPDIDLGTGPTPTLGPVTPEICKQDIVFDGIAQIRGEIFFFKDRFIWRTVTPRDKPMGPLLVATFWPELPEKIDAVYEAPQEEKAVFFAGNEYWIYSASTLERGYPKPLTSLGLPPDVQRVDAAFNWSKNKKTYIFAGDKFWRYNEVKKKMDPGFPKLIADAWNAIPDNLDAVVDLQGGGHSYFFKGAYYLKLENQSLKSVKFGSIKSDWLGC
# From the text: as §1
# ADAM9 = ADAM9 (Homo sapiens (Human), UniProt Q13443); test: Enzyme inhibition, ADAM9; assay type: biochemical
# Sequence of ADAM9 (Q13443 whole entry, looked up, change not shown): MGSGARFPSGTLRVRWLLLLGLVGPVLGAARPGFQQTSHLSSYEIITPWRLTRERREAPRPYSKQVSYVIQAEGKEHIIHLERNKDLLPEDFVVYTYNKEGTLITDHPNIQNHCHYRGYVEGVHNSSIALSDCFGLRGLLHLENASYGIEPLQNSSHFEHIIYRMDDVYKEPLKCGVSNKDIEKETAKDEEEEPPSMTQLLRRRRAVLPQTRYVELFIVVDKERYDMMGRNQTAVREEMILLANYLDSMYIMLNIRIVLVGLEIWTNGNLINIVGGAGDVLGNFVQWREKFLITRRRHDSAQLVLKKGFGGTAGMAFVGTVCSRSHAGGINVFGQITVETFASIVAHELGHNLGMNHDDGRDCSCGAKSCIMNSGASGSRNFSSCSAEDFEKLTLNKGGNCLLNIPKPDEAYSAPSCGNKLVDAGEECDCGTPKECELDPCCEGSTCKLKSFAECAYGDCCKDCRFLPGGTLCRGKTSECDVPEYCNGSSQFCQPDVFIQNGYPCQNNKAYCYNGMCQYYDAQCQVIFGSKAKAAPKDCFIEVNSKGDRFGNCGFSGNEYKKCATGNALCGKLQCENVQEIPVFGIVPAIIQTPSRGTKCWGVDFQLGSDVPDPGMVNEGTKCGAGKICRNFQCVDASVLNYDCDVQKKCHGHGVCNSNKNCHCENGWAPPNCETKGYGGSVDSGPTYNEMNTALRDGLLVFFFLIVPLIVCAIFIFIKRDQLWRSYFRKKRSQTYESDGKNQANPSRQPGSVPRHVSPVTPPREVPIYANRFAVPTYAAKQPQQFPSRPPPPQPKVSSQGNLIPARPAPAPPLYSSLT
# From the text: as §1
# VEGF = VEGF in wound tissue by ELISA; assay type: in vivo, mouse; settings: db/db mice
# Method: as §2, §3
# CD31 = test: Angiogenesis by anti-CD31 staining; assay type: in vivo, mouse; settings: db/db mice wounds
# Method: Wounds were embedded in optimal cutting temperature (OCT, Tissue-Tek, Sakura Finetek, Torrance, Calif., USA) compound and cryosectioned at 12-μm thickness for hematoxylin-eosin (H&E) and at 8-μm thickness for in-situ zymography. Re-epithelialization was assessed on a fluorescent microscope (Nikon Eclipse 90i, Nikon Instruments, Inc., Melville, N.Y., USA). Apoptotic cells in wound sections were assessed using a modified terminal deoxynucleotidyl transferase-mediated dUTP-nick-end labeling (TUNEL) assay kit, following the manufacturer's instructions (Trevigen, Inc., Gaithersburg, Md., USA). For in-situ zymography, unfixed cryostat sections of wound tissues were incubated in reaction buffer (50 mM TBS pH 7.6) containing DQ-gelatin or DQ-collagen (Molecular Probes, Inc., Eugene, Oreg., USA) at 37° C. for 6 h. After fixation in 4% paraformaldehyde in PBS, cells were counterstained with DAPI and the images were visualized by fluorescence microscopy. Immunofluorescent detection of vascular density was performed by staining the tissues with Alexa Fluor 488 anti-mouse CD31 (BioLegend, San Diego, Calif., USA), followed by staining the nuclei with DAPI. The images for in-situ zymography and vascular density were obtained by confocal microscopy.
# [7] = combination study: ND-336 0.05 mg/wound/day, MMP-8 1 μg/wound/day
# [8] = topical ND-336 0.1 mg/wound/day
compound,measurement,setting,value
CS(=O)(=O)Oc1ccc(Oc2ccc(S(=O)(=O)CC3CS3)cc2)cc1 (centres unmarked) [JNMS-38],"Inhibition type, MMP-8",MMP-8,linear competitive
same,"Inhibition type, MMP-9",MMP-9,slow-binding
Nc1ccc(Oc2ccc(S(=O)(=O)CC3CS3)cc2)cc1 (centres unmarked) [ND-322],"Inhibition type, MMP-9",MMP-9,slow-binding
"NCc1ccc(Oc2ccc(S(=O)(=O)CC3CS3)cc2)cc1 (centres unmarked) [ND-336, (4-(4-((Thiiran-2-ylmethyl)sulfonyl)phenoxy)phenyl)methanamine HCl salt]",inhibition of MMP-7 (in words),MMP-7,marginal to no inhibition
same,inhibition at 100 µM,MMP-7; @ 100 μM,1%
same,MMP-8 activity in wounds (DQ-collagen),[1]; ND-336 0.1 mg/wound/day,not affected
same,MMP-8 activity in wounds (DQ-collagen),[1]; [7],presence of MMP-8
same,Area-under-the-curve (AUC) for IL-6,IL-6,significantly reduced
same,IL-6 concentrations in wounds,"IL-6; days 1, 3, 14",significantly reduced
same,re-epithelialization (H&E),[2],almost complete re-epithelialization
same,"Inhibition type, MMP-14",MMP-14,slow-binding
same,inhibition of ADAM10 (in words),ADAM10,marginal to no inhibition
same,inhibition at 100 µM,ADAM10; @ 100 μM,14%
same,inhibition of MMP-3 (in words),MMP-3,marginal to no inhibition
same,inhibition at 100 µM,"MMP-3; @ 100 μM, catalytic domain",23%
same,stability in the buffers used in the kinetic assays,[3],stable
same,Area-under-the-curve (AUC) for TGF-β1,TGF-β1,significantly reduced
same,levels of TGF-β1 in wounds,"TGF-β1; days 1, 3, 14",significantly reduced
same,MMP-9 activity in wounds (DQ-gelatin),[4]; ND-336 0.1 mg/wound/day,significantly decreased
same,MMP-9 activity in wounds (DQ-gelatin),[4]; [7],inhibition of MMP-9
same,inhibition of MMP-1 (in words),MMP-1,marginal to no inhibition
same,inhibition at 100 µM,"MMP-1; @ 100 μM, catalytic domain",4%
same,wound healing in dose-response study,"[5]; 0.05 mg/wound/day, day 14, versus vehicle and 0.025 and 0.01 mg/wound/day",significant better healing
same,diabetic wound healing (in words),[5]; [8],accelerated diabetic wound healing
same,wound healing faster than vehicle,[5]; [8],about 2 fold
same,apoptosis (TUNEL),[6],significantly decreased
same,"Inhibition type, MMP-2",MMP-2,slow-binding
same,inhibition at 100 µM,ADAM9; @ 100 μM,31%
same,inhibition of ADAM9 (in words),ADAM9; printed as ADAMS,marginal to no inhibition
same,VEGF concentrations in the wounds,VEGF; compared to vehicle,increased
same,Area-under-the-curve (AUC) for VEGF,VEGF; versus vehicle,significantly increased
same,"Inhibition type, MMP-8",MMP-8; HCl salt,linear noncompetitive; also recorded: linear non-competitive
same,"Inhibition type, MMP-9",MMP-9,slow-binding
same,lower Ki for MMP-9 than for MMP-8,MMP-9; MMP-9 versus MMP-8,50 fold
same,angiogenesis by anti-CD31 antibodies,CD31,increased angiogenesis
COC(=O)Nc1ccc(Oc2ccc(S(=O)(=O)CC3CS3)cc2)cc1 (centres unmarked) [ND-380],"Inhibition type, MMP-8",MMP-8,non-competitive
same,Ki,MMP-8,13 µM
same,"Inhibition type, MMP-9",MMP-9,slow-binding
same,residence time,MMP-9,19.6 min
CCOC(=O)Nc1ccc(Oc2ccc(S(=O)(=O)CC3CS3)cc2)cc1 (centres unmarked) [ND-394],"Inhibition type, MMP-8",MMP-8,non-competitive
same,Ki,MMP-8,15 µM
same,"Inhibition type, MMP-9",MMP-9,slow-binding
same,Ki,MMP-9,0.86 µM
same,residence time,MMP-9,25.6 min
